Measured values: US6384051B1, “Method of treating or inhibiting colonic polyps” (American Cyanamid Company, priority 2000, dated 2002)

Legend:
min mouse = settings: background statement on NSAID's; cited from earlier work
[1] = test system: Min mouse (C57BL/6J-Min/+); assay: in vivo test procedure emulating FAP: Min mouse (C57BL/6J-Min/+), compound blended with AIN-93G chow for 60 days, intestinal polyps counted on day 61
Experimental: The polyps that develop in Min mice express EGFR and have activated COX-2.
On day 61, the animals were euthanized with CO2 inhalation, and the entire intestinal tract from stomach to anus was removed. The intestinal tract was injected with Bouins fixative, and allowed to fix for several days. The intestinal tracts were then opened and the number of polyps counted.

| Structure (SMILES) | intestinal polyp formulation in min mice (NSAID's) (min mouse) | reducing polyp numbers in mice [1] |
| --- | --- | --- |
| CCc1cccc2c3c([nH]c12)C(CC)(CC(=O)O)OCC3 (stereo not drawn) [etodoloc] | can reduce (but not eradicate) intestinal polyp formulation |  |
| CCOc1cc2ncc(C#N)c(Nc3ccc(F)c(Cl)c3)c2cc1NC(=O)C=CCN(C)C [Example 399, 4-Dimethylamino-but-2-enoic acid [4-(3-chloro-4-fluoro-phenylamino)-3-cyano-7-ethoxy-quinolin-6-yl]-amide] |  | effective in significantly reducing polyp numbers |
| CC1=C(CC(=O)O)c2cc(F)ccc2/C1=C\c1ccc([S+](C)[O-])cc1 (stereo not drawn) [sulindac] | can reduce (but not eradicate) intestinal polyp formulation |  |
